Structures are written as SMILES.

T1 sequence (Q86WV6 with tags, fused parts or gaps H232R): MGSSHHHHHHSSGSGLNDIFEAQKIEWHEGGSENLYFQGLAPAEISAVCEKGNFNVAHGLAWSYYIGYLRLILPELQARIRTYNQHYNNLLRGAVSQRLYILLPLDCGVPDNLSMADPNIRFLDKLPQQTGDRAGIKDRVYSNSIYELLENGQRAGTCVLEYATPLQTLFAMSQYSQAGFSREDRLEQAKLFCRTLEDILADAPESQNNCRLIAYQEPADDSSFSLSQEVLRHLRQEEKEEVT

The target of one assay is Human STING (Homo sapiens, UniProt Q86WV6, G230A/H232R/R293Q/R71H). Kind of assay: Reporter gene assay, human STING agonist activity, THP1-Dual cells (HAQ-mutated), IRF pathway. The following applies: THP1-Dual cells IRF EC50, THP1-Dual cells (HAQ-mutated), 24 hours; 100% = maximum count with ML-RR-CDA·2Na+.
Human STING, sequence (Q86WV6 whole entry R71H/G230A/H232R/R293Q): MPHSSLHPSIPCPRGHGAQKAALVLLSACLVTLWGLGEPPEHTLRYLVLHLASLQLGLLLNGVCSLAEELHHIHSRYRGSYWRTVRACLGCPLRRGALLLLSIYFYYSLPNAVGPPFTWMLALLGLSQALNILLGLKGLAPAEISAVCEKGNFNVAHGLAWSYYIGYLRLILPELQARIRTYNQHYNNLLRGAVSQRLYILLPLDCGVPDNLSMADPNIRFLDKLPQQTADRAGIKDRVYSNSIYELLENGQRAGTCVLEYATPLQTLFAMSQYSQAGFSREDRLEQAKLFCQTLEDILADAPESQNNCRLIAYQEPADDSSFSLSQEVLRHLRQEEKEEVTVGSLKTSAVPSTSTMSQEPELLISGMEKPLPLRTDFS
Protocol: Human STING agonist activity was evaluated by using THP1-Dual™ cells (HAQ-mutated) (InvivoGen, CA, US), with which the activation of the pathway of interferon regulatory factor-3 (IRF3), which is present in the downstream of the STING pathway, can be confirmed.
Assay was performed as follows. First, a test compound diluted with PBS was aliquoted into a transparent 96-well plate (Corning Incorporated, NY, US) at 20 μL/well. Subsequently, reporter cells suspended in assay buffer (an RPMI1640 medium or DMEM medium containing 10% bovine serum albumin) were added at 180 μL/well (1×10^5 cells/well) to initiate stimulation. After the cells were cultured in an environment at 37° C. and 5% CO2 for 24 hours, the resultant was centrifuged to collect the supernatant. To a white 384-well plate, 6 μL of the supernatant collected was added, and 15 μL of QUANTI-Luc (InvivoGen) solution was added thereto. After the resultant was well mixed together, emission was measured by using a plate reader (PerkinElmer, Inc., MA, US).
In turn, `Nc1ncnc2c1ncn2[C@@H]1O[C@@H]2COP(=O)(S)O[C@H]3[C@@H](O)[C@H](n4cc5c6c(ncnc64)NCCC5)O[C@@H]3COP(=O)(S)O[C@@H]1[C@@H]2O` (single isomer, unassigned) [1b] had an EC50 of 0.3 µM.

The molecule `Nc1ncnc2c1ncn2[C@@H]1O[C@@H]2COP(=O)(S)O[C@H]3[C@@H](O)[C@H](n4cc5c6c(ncnc64)NCCC5)O[C@@H]3COP(=O)(S)O[C@@H]1[C@@H]2O` (single isomer, unassigned) [2a] showed a concentration giving a half-maximal response (EC50) of 4.7 µM.

For the molecule `NCCn1cnc2c(ncn2[C@@H]2O[C@@H]3COP(=O)(S)O[C@H]4[C@@H](O)[C@H](n5cc6c7c(ncnc75)NCCC6)O[C@@H]4COP(=O)(S)O[C@@H]2[C@@H]3O)c1=O` (single isomer, unassigned) [5a], the EC50 turned out to be 2.4 µM.

`O=c1c2ncn([C@@H]3O[C@@H]4COP(=O)(S)O[C@H]5[C@@H](O)[C@H](n6cc7c8c(ncnc86)NCCC7)O[C@@H]5COP(=O)(S)O[C@@H]3[C@@H]4O)c2ncn1CCO` (single isomer, unassigned) [6b] yielded a concentration for a half-maximal effect (EC50) of 2.1 µM.

The molecule `Nc1nc(NCCO)nc2c1ncn2[C@@H]1O[C@@H]2COP(=O)(S)O[C@H]3[C@@H](O)[C@H](n4cc5c6c(ncnc64)NCCC5)O[C@@H]3COP(=O)(S)O[C@@H]1[C@@H]2O` (single isomer, unassigned) [9a] gave an EC50 of 5.7 µM.

As to `CC(C)(N)CNc1nc(N)c2ncn([C@@H]3O[C@@H]4COP(=O)(S)O[C@H]5[C@@H](O)[C@H](n6cc7c8c(ncnc86)NCCC7)O[C@@H]5COP(=O)(S)O[C@@H]3[C@@H]4O)c2n1` (single isomer, unassigned) [10a], the half-maximal effective concentration (EC50) is 6.3 µM.

`NCc1nc(N)c2ncn([C@@H]3O[C@@H]4COP(=O)(S)O[C@H]5[C@@H](O)[C@H](n6cc7c8c(ncnc86)NCCC7)O[C@@H]5COP(=O)(S)O[C@@H]3[C@@H]4O)c2n1` (single isomer, unassigned) [11a]: the EC50 was 4 µM.

As to `Nc1nc(CO)nc2c1ncn2[C@@H]1O[C@@H]2COP(=O)(S)O[C@H]3[C@@H](O)[C@H](n4cc5c6c(ncnc64)NCCC5)O[C@@H]3COP(=O)(S)O[C@@H]1[C@@H]2O` (single isomer, unassigned) [12b], it took 1.8 µM to reach a half-maximal effect (EC50).

Take `Nc1ncnc2c1ncn2[C@@H]1O[C@@H]2COP(=O)(S)O[C@H]3[C@@H](O)[C@H](n4cc5c6c(ncnc64)OCCC5)O[C@@H]3COP(=O)(S)O[C@@H]1[C@@H]2O` (single isomer, unassigned) [20b]: a half-maximal response (EC50) required 0.4 µM.

For the molecule `Nc1ncnc2c1ncn2[C@@H]1O[C@@H]2COP(=O)(S)O[C@H]3[C@@H](O)[C@H](n4cc5c6c(ncnc64)OCCC5)O[C@@H]3COP(=O)(S)O[C@@H]1[C@@H]2O` (single isomer, unassigned) [21b], the EC50 came to 0.7 µM.

On to `C[C@H]1CCc2cn([C@@H]3O[C@@H]4COP(=O)(S)O[C@@H]5[C@H](O)[C@@H](COP(=O)(S)O[C@H]4[C@H]3O)O[C@H]5n3cnc4c(N)ncnc43)c3ncnc(c23)O1` (single isomer, unassigned) [22b], for which a half-maximal response (EC50) required 4.3 µM.

As for `Nc1ncnc2c1ncn2[C@@H]1O[C@@H]2COP(=O)(S)O[C@H]3[C@@H](O)[C@H](n4cc5c6c(ncnc64)SCCC5)O[C@@H]3COP(=O)(S)O[C@@H]1[C@@H]2O` (single isomer, unassigned) [23b], a half-maximal effect (EC50) was put at 0.055 µM.

For `O=c1c2ncn([C@@H]3O[C@@H]4COP(=O)(S)O[C@H]5[C@@H](O)[C@H](n6cc7c8c(ncnc86)NCCC7)O[C@@H]5COP(=O)(S)O[C@@H]3[C@@H]4O)c2ncn1CCCO` (single isomer, unassigned) [26a], a half-maximal response (EC50) required 1.4 µM.

Consider `O=c1c2ncn([C@@H]3O[C@@H]4COP(=O)(S)O[C@H]5C[C@H](n6cc7c8c(ncnc86)NCCC7)O[C@@H]5COP(=O)(S)O[C@@H]3[C@@H]4O)c2ncn1CCO` (single isomer, unassigned) [32a], for which the EC50 was found to be 1.2 µM.

`O=c1c2ncn([C@@H]3O[C@@H]4COP(=O)(S)O[C@H]5C[C@H](n6cc7c8c(ncnc86)NCCC7)O[C@@H]5COP(=O)(S)O[C@@H]3[C@@H]4O)c2ncn1CCO` (single isomer, unassigned) [32b] had a concentration for a half-maximal effect (EC50) of 6.4 µM.

In turn, `O=c1c2ncn([C@@H]3O[C@@H]4COP(=O)(S)O[C@H]5[C@H](F)[C@H](n6cc7c8c(ncnc86)NCCC7)O[C@@H]5COP(=O)(S)O[C@@H]3[C@@H]4O)c2ncn1CCO` (single isomer, unassigned) [33a] came in with an EC50 of 0.18 µM.

Turning to `O=c1c2ncn([C@@H]3O[C@@H]4COP(=O)(S)O[C@H]5[C@@H](F)[C@H](n6cc7c8c(ncnc86)NCCC7)O[C@@H]5COP(=O)(S)O[C@@H]3[C@@H]4O)c2ncn1CCO` (single isomer, unassigned) [34b], it took 0.55 µM to reach a half-maximal effect (EC50).

As to `O=c1c2ncn([C@@H]3O[C@@H]4COP(=O)(S)O[C@H]5[C@@H](O)[C@H](n6cc7c8c(ncnc86)NCCC7)O[C@@H]5COP(=O)(S)O[C@@H]3C4)c2ncn1CCO` (single isomer, unassigned) [38a], a half-maximal response (EC50) required 0.45 µM.

In turn, `O=c1c2ncn([C@@H]3O[C@@H]4COP(=O)(S)O[C@H]5[C@@H](O)[C@H](n6cc7c8c(ncnc86)NCCC7)O[C@@H]5COP(=O)(S)O[C@@H]3C4)c2ncn1CCO` (single isomer, unassigned) [38b] came in with an EC50 of 1.6 µM.

Molecule `O=c1c2ncn([C@@H]3O[C@@H]4COP(=O)(S)O[C@H]5[C@@H](O)[C@H](n6cc7c8c(ncnc86)NCCC7)O[C@@H]5COP(=O)(S)O[C@@H]3[C@@H]4F)c2ncn1CCO` (single isomer, unassigned) [39b] displayed an EC50 of 0.41 µM.

Take `NCCn1cnc2c(ncn2[C@@H]2O[C@@H]3COP(=O)(S)O[C@H]4[C@@H](O)[C@H](n5cc6c7c(ncnc75)NCCC6)O[C@@H]4COP(=O)(S)O[C@@H]2[C@@H]3F)c1=O` (single isomer, unassigned) [40a]: the EC50 stood at 3.4 µM.

In turn, `NCCn1cnc2c(ncn2[C@@H]2O[C@@H]3COP(=O)(S)O[C@H]4[C@@H](O)[C@H](n5cc6c7c(ncnc75)NCCC6)O[C@@H]4COP(=O)(S)O[C@@H]2[C@@H]3F)c1=O` (single isomer, unassigned) [40b] returned an EC50 of 3.2 µM.

Take `O=C(CO)NCCn1cnc2c(ncn2[C@@H]2O[C@@H]3COP(=O)(S)O[C@H]4[C@@H](O)[C@H](n5cc6c7c(ncnc75)NCCC6)O[C@@H]4COP(=O)(S)O[C@@H]2[C@@H]3F)c1=O` (single isomer, unassigned) [41a]: the response was half-maximal at 1.1 µM (EC50).

`O=C(CO)NCCn1cnc2c(ncn2[C@@H]2O[C@@H]3COP(=O)(S)O[C@H]4[C@@H](O)[C@H](n5cc6c7c(ncnc75)NCCC6)O[C@@H]4COP(=O)(S)O[C@@H]2[C@@H]3F)c1=O` (single isomer, unassigned) [41b] returned a concentration for a half-maximal effect (EC50) of 3.6 µM.

In turn, `O=c1c2ncn([C@@H]3O[C@@H]4COP(=O)(S)O[C@H]5[C@@H](F)[C@H](n6cc7c8c(ncnc86)NCCC7)O[C@@H]5COP(=O)(S)O[C@@H]3[C@@H]4F)c2ncn1CCO` (single isomer, unassigned) [44b] yielded an EC50 of 0.35 µM.

Take `O=c1c2ncn([C@@H]3O[C@@H]4COP(=O)(S)O[C@H]5[C@@H](F)[C@H](n6cc7c8c(ncnc86)SCCC7)O[C@@H]5COP(=O)(S)O[C@@H]3[C@@H]4O)c2ncn1CCO` (single isomer, unassigned) [48b]: the EC50 is 0.039 µM.

Regarding `NCCn1cnc2c(ncn2[C@@H]2O[C@@H]3COP(=O)(S)O[C@H]4[C@@H](F)[C@H](n5cc6c7c(ncnc75)SCCC6)O[C@@H]4COP(=O)(S)O[C@@H]2[C@@H]3O)c1=O` (single isomer, unassigned) [49a], the 50% effective concentration (EC50) is 0.33 µM.

`O=C(CO)NCCn1cnc2c(ncn2[C@@H]2O[C@@H]3COP(=O)(S)O[C@H]4[C@@H](F)[C@H](n5cc6c7c(ncnc75)SCCC6)O[C@@H]4COP(=O)(S)O[C@@H]2[C@@H]3O)c1=O` (single isomer, unassigned) [50b] displayed an EC50 of 0.2 µM.

In turn, `NCCNc1nc(N)c2ncn([C@@H]3O[C@@H]4COP(=O)(S)O[C@H]5[C@@H](F)[C@H](n6cc7c8c(ncnc86)SCCC7)O[C@@H]5COP(=O)(S)O[C@@H]3[C@@H]4F)c2n1` (single isomer, unassigned) [51a] had an EC50 of 0.32 µM.

In turn, `O=c1c2ncn([C@@H]3O[C@@H]4COP(=O)(O)O[C@H]5[C@@H](F)[C@H](n6cc7c8c(ncnc86)NCCC7)O[C@@H]5COP(=O)(S)O[C@@H]3[C@@H]4O)c2ncn1CCO` (single isomer, unassigned) [52b] gave a 50% effective concentration (EC50) of 0.46 µM.

In turn, `Nc1ncnc2c1ncn2[C@@H]1O[C@@H]2COP(=O)(S)O[C@H]3[C@@H](O)[C@H](n4cc5c6c(ncnc64)NCCC5)O[C@@H]3COP(=O)(S)O[C@@H]1[C@@H]2O` (stereo partly drawn) [47a, Disodium (2S,5R,7R,8R,12aR,14R,15R,15aS,16R)-7-(6-amino-9H-purin-9-yl)-15,16-dihydroxy-2-oxo-10-sulfanylidene-14-(6,7,8,9-tetrahydro-2H-2,3,5,6-tetraazabenzo[cd]azulen-2-yl)octahydro-2H,10H,12H-5,8-methano-2λ^5,10λ^5-furo[3,2-1][1,3,6,9,11,2,10]pentaoxadiphosphacyclotetradecine-2,10-bis(thiolate)] returned a half-maximal effective concentration (EC50) of 0.58 µM.

Still in this assay, the particulars now being: read-out: THP1-Dual cells IRF EC50; THP1-Dual cells (HAQ-mutated), 24 hours; 100% = maximum count with ML-RR-CDA·2Na+.
For `Nc1ncnc2c1ncn2[C@@H]1O[C@@H]2COP(=O)(S)O[C@@H]3[C@@H](COP(=O)(S)O[C@@H]1[C@@H]2O)C[C@@H](n1cc2c4c(ncnc41)NCCC2)[C@@H]3O` (single isomer, unassigned) [46a], the half-maximal effective concentration (EC50) is 3.9 µM.

For `Nc1ncnc2c1ncn2[C@@H]1O[C@@H]2COP(=O)(S)O[C@@H]3[C@@H](COP(=O)(S)O[C@@H]1[C@@H]2O)C[C@@H](n1cc2c4c(ncnc41)NCCC2)[C@@H]3O` (single isomer, unassigned) [46b], the EC50 was found to be 0.87 µM.

Another assay concerns the target T1, HisAviTEV-hSTING (139-342) human wild-type protein (Homo sapiens, UniProt Q86WV6, H232R).
T1 construct: made in house; host or cells: E. coli Rosetta 2 (DE3), co-expressed with BirA (1-321)
Kind of assay: Protein thermal shift assay, STING C-terminal binding domain protein. The following applies: test compound final concentration 0.5 mM.
For `O=C(CO)NCCn1cnc2c(ncn2[C@@H]2O[C@@H]3COP(=O)(S)O[C@H]4[C@@H](F)[C@H](n5cc6c7c(ncnc75)SCCC6)O[C@@H]4COP(=O)(S)O[C@@H]2[C@@H]3O)c1=O` (single isomer, unassigned) [50b], the “ΔTm Hu-WT” value is 12.3 °C.

(Values after patent US12370263B2, “Cyclic dinucleotide derivative based antibody-drug conjugates” (DAIICHI SANKYO COMPANY, LIMITED, priority 2018, dated 2025).)
